In patent US20060003028A1, “Stable oxidizing bromine composition, method of manufacture and use thereof for biofouling control” (priority 2004, published 2006):

Key:
[1] = test system: mixed cooling water bacterial culture; assay: Control experiments: bromide addition alone in phosphate buffer, plate counts; assay type: cell-based
Experimental: In order to make certain that the observed biocidal performance enhancement is not caused by the bromide addition alone, a set of control experiments are conducted. […] The differences among all the plate count results are well within the detection limit. Therefore, the performance improvement seen in Examples 1-3 is not caused by the increased concentration of sodium bromide alone.

[2] = in water; cited from earlier work

Row | Compound | Biocidal effect of bromide addition alone ([1]; 50-150 ppm NaBr in phosphate buffer) | Bacterial counts ([1]; 50 ppm NaBr, 0 minutes) | Bacterial counts ([1]; 50 ppm NaBr, 5 minutes) | Bacterial counts ([1]; 50 ppm NaBr, 10 minutes) | Bacterial counts ([1]; 50 ppm NaBr, 60 minutes) | Bacterial counts ([1]; 100 ppm NaBr, 0 minutes) | Bacterial counts ([1]; 100 ppm NaBr, 5 minutes) | Bacterial counts ([1]; 100 ppm NaBr, 10 minutes) | Bacterial counts ([1]; 100 ppm NaBr, 60 minutes) | Bacterial counts ([1]; 150 ppm NaBr, 0 minutes) | Bacterial counts ([1]; 150 ppm NaBr, 5 minutes) | Bacterial counts ([1]; 150 ppm NaBr, 10 minutes) | Bacterial counts ([1]; 150 ppm NaBr, 60 minutes) | solubility [2] [g/100 g water]
1 | [Br-].[Na+] [NaBr, sodium bromide] | not biocidal | 7.3 × 10^5 CFU/ml | 9.3 × 10^5 CFU/ml | 7.0 × 10^5 CFU/ml | 8.0 × 10^5 CFU/ml | 7.3 × 10^5 CFU/ml | 11.0 × 10^5 CFU/ml | 8.2 × 10^5 CFU/ml | 5.4 × 10^5 CFU/ml | 7.3 × 10^5 CFU/ml | 8.4 × 10^5 CFU/ml | 5.2 × 10^5 CFU/ml | 8.3 × 10^5 CFU/ml | –
2 | BrBr [elemental liquid bromine, bromine] | – | – | – | – | – | – | – | – | – | – | – | – | – | < 4
